Laboratory results as given in US10301317B2, “Inhibitors of ERK and methods of use” (Kura Oncology, Inc., priority 2013, dated 2019).

What follows are compounds tested on phospho-p90 RSK (RSK1 Thr359/Ser363) in A375 (Braf V600E) cells (assay: Phospho-p90 RSK ELISA using A375 (Braf V600E) cells). Details: Homo sapiens, A-375, 2 hours compound treatment, read-out: Cellular Phospho-p90RSK IC50.
Format: cell-based
Method: In preparation for the assay, an ELISA plate with the pre-coated goat anti-mouse antibody (Thermo Scientific) was treated with a mouse anti-human RSK1 antibody (monoclonal, Invitrogen) at 1:800 dilution (150 ng/well) in PBS, and the plate was placed on a plate shaker at 4° C. overnight. […] After two […] of the compound treatment, the supernatant was removed from the cell plate, and cells were lysed in 100 μl per well of cell lysis buffer (Cell Signaling Technologies) containing phosphatase and protease inhibitors (Cell Signaling Technologies) on a plate shaker at 4° C. for 20 minutes. The ELISA plate was washed four times with ELISA wash buffer (Thermo Scientific) prior to addition of 100 μL cell lysate. The lysate was incubated on the ELISA plate with gentle shaking at room temperature for 2 hours. The contents of the wells were removed, and the ELISA plate was washed four times with wash buffer, and incubated with 100 μL per well of anti-phospho-RSK1 (Thr359/Ser363) rabbit monoclonal antibody (Millipore) at dilution of 1:1000 in StartingBlock buffer (Thermo Scientific) on a plate shaker at room temperature for 1 hour. The contents of the wells were removed, the ELISA plate was washed four times with wash buffer, and was incubated with 100 μL per well of goat anti-rabbit HRP (Thermo Scientific) at dilution of 1:3000 in StartingBlock buffer (Thermo Scientific) on a plate shaker at room temperature for 1 hour. The contents of the wells were removed, the ELISA plate was washed four times with wash buffer, and then incubated with 100 μL per well of TMB substrate solution (Thermo Scientific) on a plate shaker at room temperature for 20 minutes. Finally, 100 μL of TMB stop solution (Thermo Scientific) was added to each well and the absorbance is measured at 450 nm on a Tecan plate reader.

IC50 [µM]	Structure (SMILES)
> 1	CN(C)CCN1CCN(c2n[nH]c3cc4c(cc23)CN(Cc2ccc(F)c(Cl)c2)C(=O)N4)CC1 [Example 260]
≤ 0.25	Cn1nccc1-c1n[nH]c2cc3c(cc12)CN([C@@H]1CCCN(Cc2ccccc2)C1)C(=O)N3 [Example 261]
≤ 0.25	Cc1cc(-c2n[nH]c3cc4c(cc23)CN(C(C)C2CCOCC2)C(=O)N4)ccn1 (centres unmarked) [Example 262]
> 1	Cc1cc(-c2n[nH]c3cc4c(cc23)CN([C@@H]2CN(Cc3ccccc3)CC(F)(F)C2)C(=O)N4)ccn1 [Example 263]
> 1	Cn1nccc1-c1n[nH]c2cc3c(cc12)CN([C@@H]1CCN(CC(F)(F)F)C1)C(=O)N3 [Example 265]
≤ 0.25	Cc1cc(-c2n[nH]c3cc4[nH]c(=O)c(CC5CCCCC5)cc4cc23)ccn1 [Example 266]
> 1	Cc1cc(-c2n[nH]c3cc4c(cc23)CN([C@@H]2CCN(C(C)C)C2)C(=O)N4)ccn1 [Example 268]
≤ 0.25	Cc1ccc(-c2n[nH]c3cc4c(cc23)CN([C@@H]2CCN(CC(F)(F)F)C2)C(=O)N4)cn1 [Example 274]
≤ 0.25	COc1ncc(-c2n[nH]c3cc4c(cc23)CN([C@@H]2CCN(CC(F)(F)F)C2)C(=O)N4)cn1 [Example 276]
≤ 0.25	COc1ccc(-c2n[nH]c3cc4c(cc23)CN([C@@H]2CCN(CC(F)(F)F)C2)C(=O)N4)cn1 [Example 277]
> 1	Cc1cc(-c2n[nH]c3cc4c(cc23)CN(CCC2CC2)C(=O)N4)ccn1 [Example 283]
≤ 0.25	Cc1cc(-c2n[nH]c3cc4c(cc23)CN(C(C)c2nc(C)c(C)s2)C(=O)N4)ccn1 (centres unmarked) [Example 286]
0.25 to 1	Cc1cc(-c2n[nH]c3cc4[nH]c(=O)c([C@@H](C)c5ccc(F)cc5)cc4cc23)ccn1 [Example 287]
0.25 to 1	Cc1cc(-c2n[nH]c3cc4[nH]c(=O)c(C5CCCC5)cc4cc23)ccn1 [Example 289]
≤ 0.25	Cc1cc(-c2n[nH]c3cc4c(cc23)CN([C@@H]2CCCN(Cc3ccc(F)s3)C2)C(=O)N4)ccn1 [Example 290]
≤ 0.25	Cc1cc(-c2n[nH]c3cc4c(cc23)CN(C(C)C2CCCC2)C(=O)N4)ccn1 (centres unmarked) [Example 294]
≤ 0.25	COc1ncc(-c2n[nH]c3cc4c(cc23)CN([C@@H]2CCCN(Cc3cccs3)C2)C(=O)N4)cn1 [Example 295]
> 1	Cc1cc(-c2n[nH]c3cc4c(cc23)CN([C@H]2CN(C(C)C)C[C@@H]2c2ccccc2)C(=O)N4)ccn1 [Example 296]
≤ 0.25	Cn1cc(-c2n[nH]c3cc4c(cc23)CN([C@@H]2CCCN(Cc3cccs3)C2)C(=O)N4)cn1 [Example 298]
≤ 0.25	Cc1cc(-c2n[nH]c3cc4c(cc23)CN([C@H]2CCN(CC(F)(F)F)C2)C(=O)N4)ccn1 [Example 299]
> 1	Cc1cc(-c2n[nH]c3cc4c(cc23)CN([C@H]2CN(CC(F)(F)F)C[C@@H]2c2ccccc2)C(=O)N4)ccn1 [Example 303]
0.25 to 1	Cc1cc(-c2n[nH]c3cc4c(cc23)CN([C@H]2CN(C)C[C@@H]2c2ccccc2)C(=O)N4)cc(C)n1 [Example 307]
0.25 to 1	Cc1cc(-c2n[nH]c3cc4c(cc23)CN([C@H]2CCCN(CC(F)(F)F)C2)C(=O)N4)ccn1 [Example 309]
0.25 to 1	Cc1cc(-c2n[nH]c3cc4c(cc23)CN([C@H]2CCN(CC(F)(F)F)C2)C(=O)N4)cc(C)n1 [Example 310]
≤ 0.25	Cc1cc(-c2n[nH]c3cc4[nH]c(=O)c(C(C)c5ccc(F)cc5F)cc4cc23)ccn1 (centres unmarked) [Example 312]
0.25 to 1	Cc1cc(-c2n[nH]c3cc4c(cc23)CN([C@@H]2CCC[C@@H](NCc3ccccc3)C2)C(=O)N4)ccn1 [Example 313]
> 1	Cc1cc(-c2n[nH]c3cc4c(cc23)CN([C@@H]2CN(CC(F)(F)F)C[C@H]2C(C)(C)C)C(=O)N4)ccn1 [Example 329]
≤ 0.25	CC(c1ccccc1)c1cc2cc3c(-c4cnc(N)nc4)n[nH]c3cc2[nH]c1=O (centres unmarked) [Example 334]
> 1	Cc1ncccc1-c1n[nH]c2cc3[nH]c(=O)c(C(C)c4ccccc4)cc3cc12 (centres unmarked) [Example 335]
